Measured values as given in patent publication US20240245753A1, “METHODS OF REDUCING SIDE EFFECTS OF ANTI-CD30 ANTIBODY DRUG CONJUGATE THERAPY” (priority 2017, published 2024).
Like-named read-outs stand apart in the source and are kept apart here.

Experiments:
[1] = tested on: newly diagnosed CD30-positive mature T- and NK-cell neoplasms, including sALCL; details: given concomitantly with CHP; cited from earlier work
[2] = tested on: relapsed or refractory sALCL; details: cited from earlier work
[3] = Randomized, double-blind Phase 3 clinical trial of A+CHP versus CHOP: safety (adverse events, exposure); details: human, in vivo
Text: TRIAL DESIGN: Approximately 450 patients (approximately 225 patients per treatment arm) are randomized in this study. The standard of care in this patient population consists of 6-8 cycles of CHOP chemotherapy. Patients are randomized in a 1:1 manner to receive 21-day cycles of treatment in 1 of the following 2 treatment groups: Standard-of-care arm: 6-8 cycles of CHOP; or Experimental arm: 6-8 cycles of brentuximab vedotin plus CHP (A+CHP). A target of 8 cycles of study treatment are administered, per investigator decision, based on patient-specific characteristics, including stage of disease and IPI risk score.
Safety is evaluated by the incidence of adverse events, using the Medical Dictionary for Regulatory Activities (MedDRA; v19.0), and National Cancer Institute Common Terminology Criteria for Adverse Events v4.03, and by changes in vital signs, and clinical laboratory results.
All efficacy evaluations are conducted using the intent-to-treat population unless otherwise specified. Safety is analyzed in patients who received at least one dose of study drug (safety population).
Subjects were randomly assigned in a 1:1 ratio to receive 21-day cycles of either A+CHP or CHOP for 6 or 8 cycles, with the number of cycles determined at the outset and based on investigator discretion. […]

In the case of brentuximab vedotin, the maximum tolerated dose [1] is given as 1.8 mg/kg, the “median duration of response” value ([2]; 1.8 mg/kg every 3 weeks) is given as 12.6 months and the “objective response (CR+PR) rate” value ([2]; 1.8 mg/kg every 3 weeks) is given as 86%. For the same molecule, the “patients achieving a CR” value ([2]; 1.8 mg/kg every 3 weeks) was 57%, the tolerability ([2]; manageable side effects) was “generally well tolerated” and the “median duration of response” value ([2]; subset of patients who achieved a CR) was 13.2 months.

B1: G-CSF (protein, UniProt P09919 31-207, looked up)
Granulocyte …: TPLGPASSLPQSFLLKCLEQVRKIQGDGAALQEKLVSECATYKLCHPEELVLLGHSLGIPWAPLSSCPSQALQLAGCLSQLHSGLFLYQGLLQALEGISPELGPTLDTLQLDVADFATTIWQQMEELGMAPALQPTQGAMPAFASAFQRRAGGVLVASHLQSFLEVSYRVLRHLAQP
With B1 the “effect of primary prophylactic G-CSF on febrile neutropenia” value [3] was “reduced the incidence and severity”.
